{
  "source": "patent US20040152727A1",
  "about": "“Novel use” (priority 2001, published 2004)",
  "key": {"[1]": {"tested_on": "guinea-pig enteric neurones", "test": "slow EPSP in guinea-pig enteric neurones", "format": "cell-based", "conditions": "0.1 microM", "method": "The slowEPSP was elicited by high frequency (20 Hz) electrical stimulation for 1 s, applied to a circumferential internodal strand connecting to the ganglion. […] It was perfused continuously and the slowEPSP was tested at various intervals. In all four neurons there was a decrease of peak amplitude of depolarisation of over 50% when compared with baseline, once the drug had circulated for at least 30 minutes."}, "rats [2]": {"tested_on": "rats", "test": "small intestinal transit in normal, non-sensitised animals", "format": "in vivo, rat", "conditions": "15 mg/kg po"}, "conscious rats": {"tested_on": "conscious rats", "test": "colo-rectal distension in conscious rats (intestinal nociception)", "format": "in vivo, rat"}, "[3]": {"tested_on": "guinea-pig isolated colon", "test": "stretch-induced reflex activity in guinea-pig isolated colon", "conditions": "250 nM applied for 30-45 min; 6, 12 or 20 g weights; greater at higher distension", "text": "For reflex studies, 5-7 cm lengths of colon were suspended in warmed, oxygenated physiological saline, so that an 8 mm metal bar could be inserted into the lumen and connected, via a thread passing through the intestinal wall, to a pulley system which allowed different weights to pull on the bar and distend the intestine. Force transducers were attached to the wall of the colon via small wire hooks, 5 mm either side of the distending bar. Colonic wall distension using 6, 12 or 20 g weights evoked rhythmic contractions oral to the distension and a small relaxation on the anal side. Application of 12 and 20 g weights evoked similar patterns of activity and although the small relaxation on the anal side of the distension seemed more apparent, the oral excitatory response was not different from the effects of the 6 g weight."}, "rats [4]": {"tested_on": "rats", "test": "rat gastric emptying, phenol red method", "format": "in vivo", "conditions": "for % GASTRIC EMPTYING: rat, oral"}, "rat NK-3 receptor": {"biological_target": "T1, rat NK-3 receptor (Rattus norvegicus, UniProt P16177)", "T1 sequence (P16177 1-452)": "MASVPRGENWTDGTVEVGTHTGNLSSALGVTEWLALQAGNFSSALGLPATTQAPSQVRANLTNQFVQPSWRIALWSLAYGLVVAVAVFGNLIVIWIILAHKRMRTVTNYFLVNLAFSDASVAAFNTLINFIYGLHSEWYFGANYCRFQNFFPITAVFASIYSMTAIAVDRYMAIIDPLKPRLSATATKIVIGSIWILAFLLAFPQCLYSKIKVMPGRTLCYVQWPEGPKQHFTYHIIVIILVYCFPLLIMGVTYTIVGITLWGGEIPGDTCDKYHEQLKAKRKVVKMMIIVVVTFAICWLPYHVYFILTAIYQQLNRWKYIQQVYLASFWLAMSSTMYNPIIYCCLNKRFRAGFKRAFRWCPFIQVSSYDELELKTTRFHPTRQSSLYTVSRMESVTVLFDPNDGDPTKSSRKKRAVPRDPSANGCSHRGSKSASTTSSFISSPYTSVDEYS", "test": "affinity for the rat NK-3 receptor", "format": "binding", "conditions": "relative to its higher affinity for the human or guinea-pig variants"}, "rats [5]": {"tested_on": "rats", "test": "egg-albumin sensitized increase in rat small intestinal transit", "format": "in vivo", "conditions": "pre-treatment 15 mg/kg po"}, "rats [6]": {"tested_on": "rats", "test": "gastrointestinal motility in rats, charcoal meal test", "format": "in vivo, rat", "conditions": "for effect on gastrointestinal motility in the rat: charcoal meal test; for % CHANGE FROM VEHICLE-TREATED ANIMALS / GROUP MEAN DISTANCE TRAVELLED BY CHARCOAL AS % OF TOTAL GUT LENGTH ± SD: rat, oral", "text": "Thus, the distance travelled by the charcoal meal in each Compound (I)-treated group was similar to the vehicle-treated group at each tested dose."}},
  "note": "Marks after values point to notes of the source that are not given here.",
  "data": [
    {"smiles": "CC[C@H](NC(=O)c1c(O)c(-c2ccccc2)nc2ccccc12)c1ccccc1", "note": "[Compound (I), (S)-N-(α-ethylbenzyl)-3-hydroxy-2-phenylquinoline-4-carboxamide]", "values": [
      {"measurement": "decrease of peak amplitude of depolarisation of slowEPSP compared with baseline", "setting": "[1]; circulated at least 30 minutes, all four neurons", "value": "over 50%"},
      {"measurement": "blockade of slowEPSP", "setting": "[1]; one neuron", "value": 100, "unit": "%"},
      {"measurement": "blockade of slowEPSP based on the amplitude of depolarisation", "setting": "[1]; the other three neurons", "value": "60-80%"},
      {"measurement": "effect on small intestinal transit", "setting": "rats [2]", "value": "did not significantly affect"},
      {"measurement": "antinociceptive effect during colo-rectal distension", "setting": "conscious rats; 10 mg/kg po", "value": "without anti-nociceptive activity"},
      {"measurement": "antinociceptive effect during colo-rectal distension", "setting": "conscious rats; 30 mg/kg po", "value": "statistically significant only at the highest distension pressure"},
      {"measurement": "effect on colo-rectal tone", "setting": "conscious rats; 50 mg/kg po", "value": "without affecting colo-rectal tone"},
      {"measurement": "antinociceptive effect during colo-rectal distension", "setting": "conscious rats; 50 mg/kg po, 30, 45 and 60 mmHg distension pressures", "value": "significant antinociceptive effect"},
      {"measurement": "effect on reflexes evoked by colonic wall distension", "setting": "[3]", "value": "reduced the effects of distension"},
      {"measurement": "effect on rat gastric emptying", "setting": "rats [4]; oral doses of 5, 15 and 50 mg/kg", "value": "no marked or statistically significant effects"},
      {"measurement": "% GASTRIC EMPTYING", "setting": "rats [4]; 5 mg/kg", "value": 55.2, "unit": "%"},
      {"measurement": "% GASTRIC EMPTYING", "setting": "rats [4]; 15 mg/kg", "value": 50.7, "unit": "%"},
      {"measurement": "% GASTRIC EMPTYING", "setting": "rats [4]; 50 mg/kg", "value": 62.4, "unit": "%"},
      {"measurement": "affinity for the rat NK-3 receptor", "setting": "rat NK-3 receptor", "value": "low affinity"},
      {"measurement": "effect on increased transit after egg-albumin sensitisation", "setting": "rats [5]", "value": "greatly inhibited"},
      {"measurement": "effect on gastrointestinal motility in the rat", "setting": "rats [6]; oral, 5, 15 and 50 mg/kg", "value": "no marked or statistically significant effect"},
      {"measurement": "% CHANGE FROM VEHICLE-TREATED ANIMALS", "setting": "rats [6]; 5 mg/kg", "value": "−11.5", "unit": "%"},
      {"measurement": "GROUP MEAN DISTANCE TRAVELLED BY CHARCOAL AS % OF TOTAL GUT LENGTH ± SD", "setting": "rats [6]; 5 mg/kg", "value": "46.9 ± 5.3", "unit": "%"},
      {"measurement": "% CHANGE FROM VEHICLE-TREATED ANIMALS", "setting": "rats [6]; 15 mg/kg", "value": "−1.7", "unit": "%"},
      {"measurement": "GROUP MEAN DISTANCE TRAVELLED BY CHARCOAL AS % OF TOTAL GUT LENGTH ± SD", "setting": "rats [6]; 15 mg/kg", "value": "52.1 ± 7.1", "unit": "%"},
      {"measurement": "% CHANGE FROM VEHICLE-TREATED ANIMALS", "setting": "rats [6]; 50 mg/kg", "value": "−4.9", "unit": "%"},
      {"measurement": "GROUP MEAN DISTANCE TRAVELLED BY CHARCOAL AS % OF TOTAL GUT LENGTH ± SD", "setting": "rats [6]; 50 mg/kg", "value": "50.4 ± 8.6", "unit": "%"}
    ]},
    {"smiles": "CN1CC[C@]23c4c5ccc(O)c4O[C@H]2[C@@H](O)C=C[C@H]3[C@H]1C5.O=S(=O)(O)O", "note": "[Morphine sulfate, reference compound]", "values": [
      {"measurement": "effect on rat gastric emptying", "setting": "rats [4]; orally at 20 mg/kg", "value": "marked and statistically significant decrease"},
      {"measurement": "% GASTRIC EMPTYING", "setting": "rats [4]; 20 mg/kg", "value": "30.8** %"},
      {"measurement": "effect on gastrointestinal motility in the rat", "setting": "rats [6]; oral dose of 10 mg/kg", "value": "marked and statistically significant decrease"},
      {"measurement": "% CHANGE FROM VEHICLE-TREATED ANIMALS", "setting": "rats [6]; 10 mg/kg", "value": "−29.4", "unit": "%"},
      {"measurement": "GROUP MEAN DISTANCE TRAVELLED BY CHARCOAL AS % OF TOTAL GUT LENGTH ± SD", "setting": "rats [6]; 10 mg/kg", "value": "37.4 ± 12.4", "unit": "%"}
    ]}
  ]
}
